Laboratory results: ChEMBL document CHEMBL6103672, “Discovery of HMPL-306 (Ranosidenib), a New Potent and Selective Dual Inhibitor of Mutant IDH1 and 2 in Clinical Development for Cancer Treatment” (ACS Med Chem Lett, 2025)

Key:
[1] = target: Isocitrate dehydrogenase [NADP], mitochondrial (Homo sapiens, UniProt P48735, R140Q); test: Inhibition of IDH2 R140Q mutant (unknown origin) using alpha-ketoglutarate as substrate preincubated with compound for 16 hrs followed by substrate addition and measured after 1 hr in presence of NADPH by fluorescence based analysis
[2] = Inhibition of IDH2 R140Q mutant in human U-87 MG cells incubated for 72 hrs by measuring 2-HG production by fluorescence based analysis; type: functional, cell-based, U-87MG ATCC; conditions: Homo sapiens, U-87 MG, 72 h
[3] = Inhibition of IDH1 R132H mutant in human U-87 MG cells incubated for 72 hrs by measuring 2-HG production by fluorescence based analysis; type: functional, cell-based, U-87MG ATCC; conditions: Homo sapiens, U-87 MG, 72 h
[4] = Metabolic stability in male SD rat liver microsomes assessed as parent compound remaining at 1 uM measured after 30 mins in presence of NADPH by LC-MS analysis; type: ADME, Microsome; conditions: Sprague-Dawley, read-out: Stability
[5] = Metabolic stability in male ICR mouse liver microsomes assessed as parent compound remaining at 1 uM measured after 30 mins in presence of NADPH by LC-MS analysis; type: ADME, Microsome; conditions: read-out: Stability
[6] = Clearance in male ICR mouse at 2.5 mg/kg, iv measured after 8 hrs by LC/MS/MS analysis; type: ADME, organism-based; conditions: in vivo
[7] = Half life in male ICR mouse at 10 mg/kg, po measured after 8 hrs by LC/MS/MS analysis; type: ADME, organism-based; conditions: in vivo
[8] = AUC(0 to t) in male ICR mouse at 10 mg/kg, po measured upto 24 hrs by LC/MS/MS analysis; type: ADME, organism-based; conditions: in vivo
[9] = AUC(0 to infinity) in male ICR mouse at 10 mg/kg, po measured after 8 hrs by LC/MS/MS analysis; type: ADME, organism-based; conditions: in vivo
[10] = Inhibition of IDH1 R132H mutant in human TF-1 cells incubated for 72 hrs by measuring 2-HG production by fluorescence based analysis; type: functional, cell-based; conditions: TF-1, 72 h
[11] = Inhibition of IDH2 R140Q mutant in human TF-1 cells incubated for 72 hrs by measuring 2-HG production by fluorescence based analysis; type: functional, cell-based; conditions: TF-1, 72 h
[12] = AUC(0 to t) in male Sprague-Dawley rat at 1 mg/kg, iv measured after 144 hrs by LC/MS/MS analysis; type: ADME, organism-based; conditions: in vivo
[13] = AUC(0 to t) in male Sprague-Dawley rat at 5 mg/kg, po measured after 144 hrs by LC/MS/MS analysis; type: ADME, organism-based; conditions: in vivo
[14] = AUC(0 to infinity) in male ICR mouse at 2.5 mg/kg, iv measured after 8 hrs by LC/MS/MS analysis; type: ADME, organism-based; conditions: in vivo
[15] = AUC(0 to infinity) in male Sprague-Dawley rat at 5 mg/kg, po measured after 24 hrs by LC/MS/MS analysis; type: ADME, organism-based; conditions: in vivo
[16] = Half life in male ICR mouse at 2.5 mg/kg, iv measured after 8 hrs by LC/MS/MS analysis; type: ADME, organism-based; conditions: in vivo
[17] = Half life in male Sprague-Dawley rat at 5 mg/kg, po measured after 24 hrs by LC/MS/MS analysis; type: ADME, organism-based; conditions: in vivo
[18] = Clearance in male Sprague-Dawley rat at 1 mg/kg, iv measured after 24 hrs by LC/MS/MS analysis; type: ADME, organism-based; conditions: in vivo
[19] = Volume of distribution at steady state in male Sprague-Dawley rat at 1 mg/kg, iv measured after 24 hrs by LC/MS/MS analysis; type: ADME, organism-based; conditions: in vivo, read-out: Vdss
[20] = Oral bioavailability in male Sprague-Dawley rat at 5 mg/kg measured after 24 hrs by LC/MS/MS analysis; type: ADME, organism-based; conditions: in vivo
[21] = In vivo inhibition of 2-HG in BALB/c nude mouse xenografted with human U-87 MG cells harboring IDH2 R140Q mutant at 25 mg/kg, po measured after 16 hrs post dose; type: functional
[22] = In vivo inhibition of 2-HG in BALB/c nude mouse xenografted with human U-87 MG cells harboring IDH2 R140Q mutant at 25 mg/kg, po measured after 24 hrs post dose; type: functional; conditions: Mus musculus, BALB/c, U-87 MG
[23] = In vivo inhibition of 2-HG in BALB/c nude mouse xenografted with human HT-1080 cells harboring IDH1 R132C mutant at 25 mg/kg, po measured after 16 to 40 hrs post dose; type: functional; conditions: time 16-40 hrs
[24] = target: Voltage-gated inwardly rectifying potassium channel KCNH2 (Homo sapiens, UniProt Q12809); test: Inhibition of hERG expressed in CHO cells by manual patch-clamp assay; type: toxicity, cell-based
Adenosine receptor A3 = target: T1, Adenosine receptor A3 (Homo sapiens, UniProt P0DMS8); test: Inhibition of adenosine A3 receptor (unknown origin); type: toxicity
T1 sequence (P0DMS8 whole entry): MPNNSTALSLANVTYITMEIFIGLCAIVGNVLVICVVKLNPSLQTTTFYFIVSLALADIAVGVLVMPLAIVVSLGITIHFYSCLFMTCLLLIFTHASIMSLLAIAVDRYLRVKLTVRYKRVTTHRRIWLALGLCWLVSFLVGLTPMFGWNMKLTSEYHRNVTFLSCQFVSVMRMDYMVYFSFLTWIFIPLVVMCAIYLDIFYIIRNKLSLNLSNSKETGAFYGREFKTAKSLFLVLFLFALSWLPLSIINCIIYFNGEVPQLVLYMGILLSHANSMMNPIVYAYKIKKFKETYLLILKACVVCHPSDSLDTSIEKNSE

UGT1A1 = target: T2, UGT1A1 (Homo sapiens, UniProt P22309); test: Inhibition of UGT1A1 (unknown origin) at 10 uM relative to control; type: ADME
T2 sequence (P22309 whole entry): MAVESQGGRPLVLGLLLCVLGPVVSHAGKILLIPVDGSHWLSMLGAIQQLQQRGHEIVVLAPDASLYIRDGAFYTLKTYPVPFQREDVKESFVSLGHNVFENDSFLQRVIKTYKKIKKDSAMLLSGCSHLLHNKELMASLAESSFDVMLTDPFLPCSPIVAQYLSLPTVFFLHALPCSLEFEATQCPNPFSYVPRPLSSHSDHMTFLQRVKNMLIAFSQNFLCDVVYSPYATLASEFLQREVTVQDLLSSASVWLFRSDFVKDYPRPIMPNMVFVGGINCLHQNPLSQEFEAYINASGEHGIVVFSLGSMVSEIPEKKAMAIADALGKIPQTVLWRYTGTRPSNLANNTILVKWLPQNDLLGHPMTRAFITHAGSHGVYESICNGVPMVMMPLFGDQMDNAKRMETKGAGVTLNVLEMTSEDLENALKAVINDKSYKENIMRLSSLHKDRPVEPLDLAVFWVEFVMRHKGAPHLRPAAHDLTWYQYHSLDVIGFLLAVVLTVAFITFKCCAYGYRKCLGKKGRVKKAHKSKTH

[25] = Ratio of drug concentration in brain to plasma of BALB/c nude mouse xenografted with human U-87 MG cells harboring IDH2 R140Q mutant at 50 mg/kg measured after 16 hrs by LC/MS/MS analysis; type: ADME, organism-based; conditions: read-out: BPR
[26] = Ratio of drug concentration in brain to plasma of BALB/c nude mouse xenografted with human U-87 MG cells harboring IDH2 R140Q mutant at 50 mg/kg measured after 24 hrs by LC/MS/MS analysis; type: ADME, organism-based; conditions: read-out: BPR

Isocitrate dehydrogenase [NADP], mitochondrial, sequence (P48735 40-452 R140Q limits assumed): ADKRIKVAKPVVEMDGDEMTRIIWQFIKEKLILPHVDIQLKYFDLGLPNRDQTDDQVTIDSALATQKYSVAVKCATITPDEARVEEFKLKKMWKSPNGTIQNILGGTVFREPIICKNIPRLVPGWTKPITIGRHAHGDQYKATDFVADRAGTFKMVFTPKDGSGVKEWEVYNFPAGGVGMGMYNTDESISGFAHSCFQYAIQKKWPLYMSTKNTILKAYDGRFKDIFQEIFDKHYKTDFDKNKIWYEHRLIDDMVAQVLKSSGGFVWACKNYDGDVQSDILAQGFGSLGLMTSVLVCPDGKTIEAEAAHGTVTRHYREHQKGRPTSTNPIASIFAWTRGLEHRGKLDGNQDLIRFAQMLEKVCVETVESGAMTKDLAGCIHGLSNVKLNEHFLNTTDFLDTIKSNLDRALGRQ
Voltage-gated inwardly rectifying potassium channel KCNH2, sequence (Q12809 whole entry): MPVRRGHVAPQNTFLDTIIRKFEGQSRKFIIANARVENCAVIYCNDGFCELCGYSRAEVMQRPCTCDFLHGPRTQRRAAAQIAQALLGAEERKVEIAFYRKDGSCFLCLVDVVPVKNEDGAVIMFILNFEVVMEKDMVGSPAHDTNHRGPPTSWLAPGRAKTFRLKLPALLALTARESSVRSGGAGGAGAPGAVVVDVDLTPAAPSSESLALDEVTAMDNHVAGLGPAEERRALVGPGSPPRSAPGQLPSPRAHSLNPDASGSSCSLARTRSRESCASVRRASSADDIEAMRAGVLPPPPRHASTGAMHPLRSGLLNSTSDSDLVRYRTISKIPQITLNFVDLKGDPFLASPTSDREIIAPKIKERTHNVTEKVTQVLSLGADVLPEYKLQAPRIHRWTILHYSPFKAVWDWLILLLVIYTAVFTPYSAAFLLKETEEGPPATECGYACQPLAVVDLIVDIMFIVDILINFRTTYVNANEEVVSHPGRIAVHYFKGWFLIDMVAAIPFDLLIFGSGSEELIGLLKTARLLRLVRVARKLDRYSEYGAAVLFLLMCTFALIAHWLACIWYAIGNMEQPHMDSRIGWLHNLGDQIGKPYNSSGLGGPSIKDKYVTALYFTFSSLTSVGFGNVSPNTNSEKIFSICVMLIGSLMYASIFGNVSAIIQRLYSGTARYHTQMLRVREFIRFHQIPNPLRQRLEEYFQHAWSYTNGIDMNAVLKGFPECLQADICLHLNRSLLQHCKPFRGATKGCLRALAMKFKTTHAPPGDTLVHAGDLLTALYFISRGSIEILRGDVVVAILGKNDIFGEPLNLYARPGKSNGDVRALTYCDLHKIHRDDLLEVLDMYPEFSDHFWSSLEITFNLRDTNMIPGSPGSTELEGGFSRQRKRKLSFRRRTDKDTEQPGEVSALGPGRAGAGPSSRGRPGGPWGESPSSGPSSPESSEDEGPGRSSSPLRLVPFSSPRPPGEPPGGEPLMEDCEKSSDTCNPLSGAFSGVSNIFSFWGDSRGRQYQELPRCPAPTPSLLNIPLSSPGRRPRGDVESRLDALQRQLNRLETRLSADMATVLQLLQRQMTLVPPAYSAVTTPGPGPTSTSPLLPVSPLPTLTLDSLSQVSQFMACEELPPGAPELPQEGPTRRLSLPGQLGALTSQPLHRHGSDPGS

IC50 [1]: 28 nM | IC50 [2]: 31 nM | IC50 [3]: 50 nM | remaining at 0.5 h, 1 µM [4]: 99.5% | remaining at 0.5 h, 1 µM [5]: 98.4% | clearance [6]: 3.3 mL/min/kg | half-life [7]: 20.2 h | AUC(0-t) at 24 h [8]: 35000 ng·h/mL | AUC(0-inf) [9]: 62000 ng·h/mL | IC50 [10]: 31 nM | IC50 [11]: 21 nM | AUC(0-t) at 144 h [12]: 17100 ng·h/mL | AUC(0-t) at 144 h [13]: 96600 ng·h/mL | AUC(0-inf) [14]: 12700 ng·h/mL | AUC(0-inf) [15]: 112000 ng·h/mL | half-life [16]: 10.6 h | half-life [17]: 50.4 h | clearance [18]: 0.8 mL/min/kg | Vd [19]: 3.67 L/kg | bioavailability [20]: 113% | inhibition at 10 µM (UGT1A1): 46.7% | Kp at 16 h [25]: 2.8 | Kp at 24 h [26]: 2.9
Structure (SMILES): C[C@@H](Nc1nc(N[C@H](C)C(F)(F)F)nc(C2=C(F)[C@H](O)C(F)(F)CC2)n1)C(F)(F)F [RANOSIDENIB]
inhibition in vivo at 25 mg/kg [21]: 96% | inhibition in vivo at 25 mg/kg [22]: 98% | inhibition in vivo at 25 mg/kg [23]: ≥ 90% | IC50 [24]: > 30000 nM | IC50 (Adenosine receptor A3): 8500 nM
